{"source": "patent US10881611B2", "about": "“Extracellular vesicles derived from osteoblastic lineage cells for therapeutic and diagnostic use” (Fondazione Città Della Speranza—Onlus, priority 2015, dated 2021)", "key": {"mature osteoclasts": {"test_system": "mature osteoclasts", "assay": "Mature osteoclasts treated for 48 hours, TRAcP colouring", "format": "cell-based, mouse", "description": "Primary mouse osteoclasts are obtained by medullar macrophages differentiation isolated from CD1 long bones of age comprised within 7-10 days. The litter is kept and maintained according to the legal requirements, under the supervision of a veterinary responsible. When experimentally needed, the animals are sacrificed according to the laws and the long bones are explanted and cleaned from soft tissues. The bones are then submitted to mechanical disruption in order to free the bone marrow. The cells obtained are diluted in PBS and stratified 1:1 on Histopaque (Sigma-Aldrich), and centrifuged for 30′ at 450 g. The formed buffy coat is collected and washed with PBS. […] The osteoclastic phenotype is routinely assessed by biochemical assay to tartarate resistant acidic phosphatase positivity on a cell aliquot fixed in PFA/PBS (4% v/v). […]\nThe sensitivity of mature osteoclasts to the antitumor medicament doxorubicin has been evaluated by treating the cells with different doxorubicin concentrations (0.1-0.2-0.5-1-2-4 μM) and carrying out TRAcP colouring after fixing. […]\nThe sensitivity of mature osteoclasts to the medicament zolendronate has been assessed by treating the cells with different zolendronate concentrations (10^−8, 5×10^−8, 10^−7, 5×10^−7, 10^−6, 5×10^−6, 10^−5, 5×10^−5, 10^−4 M) and carrying out TRAcP colouring after fixing. […]"}, "[1]": {"test_system": "human osteosarcoma cell lines", "assay": "Cell viability assay (MTT) of human osteosarcoma cell lines", "format": "cell-based", "protocol": "Osteosarcoma cell lines sensitivity to anti-tumour drug Doxorubicin was evaluated by treating the cells with different Doxorubicin concentrations and carrying out cell viability assay with MTT at different times.\nRANKL+ O-EVs were incubated with Doxorubicin (300 mg/ml) in vitro, then subjected to FACS. RANKL+ O-EV-associated doxorubicin confers red fluorescence to the nanoparticles, enabling FACS isolation thereof (FIG. 11).\nHuman osteosarcoma cell lines were treated with free Doxorubicin (235 ng, corresponding to a concentration of 1 micromole/litre in the medium) or with RANKL+ O-EV-associated Doxorubicin (100,000 FACS-isolated nanoparticles, containing 3.2 ng of Doxorubicin, corresponding to a concentration of 10 nanomole/litre in the medium). […] However, the treatment with anti-tumour drug-loaded RANKL+ O-EVs allowed to obtain this effect with a Doxorubicin dose 100-fold lower than the free drug (Table 1 below)."}, "primary osteoblasts": {"test_system": "primary osteoblasts", "assay": "FACS evaluation of the RANKL-positive O-EV fraction released by osteoblasts under parathyroid hormone stimulation", "format": "cell-based, murine", "conditions": "osteoblasts subjected to parathyroid hormone stimulation (10^−8 M human recombinant), p=0.037; without stimulation 53.06+3.47%", "protocol": "Murine osteoblasts, obtained as previously described, are plated in 150 cm^2 culture flasks and grown in DMEM culture medium containing glutamine (5 mM), penicillin (1 mg/ml), streptomycin (2 mg/ml) and American fetal bovine serum (10% v/v) (FBS), and kept in incubator under 5% CO2. Upon reaching 70% confluence, cells were abundantly washed with PBS (3 times) to remove serum residues, and kept 24 hours in glutamine (5 mM)/penicillin (1 mg/ml), streptomycin (2 mg/ml) DMEM medium. […]\nAt the end of the procedure, the pellet obtained is resuspended in […] PBS and incubated with 10 microM CMFDA, at 37° C. for 30 min. The pellet is then brought to maximum volume with PBS in ultra-centrifuge tube, centrifuged at 30,000 RPM for 70 minutes at 4° C., and evaluated for quantity and quality by cytofluorimetric analysis. […]\nFACScanto II (BD Biosciences) was resorted to for cytofluorimetric analysis. […] Moreover, the prescribed fluorescence channel compensations are carried out. […]\nFor evaluation of RANKL expression, CMFDA positive RANKL+ O-EV pellet is incubated for 30 min with mouse anti-RANKL antibody conjugated with Phycoerythrin (PE) (1:100) in PBS/BSA (1%). RANKL+ O-EVs are then FACS analysed and CMFDA/PE double-positive fraction is isolated for further evaluations. […]"}, "[2]": {"conditions": "human osteosarcoma cell lines, Table 1"}}}
{"molecule": "COc1cccc2c1C(=O)c1c(O)c3c(c(O)c1C2=O)C[C@@](O)(C(=O)CO)C[C@@H]3O[C@H]1C[C@H](N)[C@H](O)[C@H](C)O1", "note": "[Doxorubicin]", "values": [{"measurement": "doxorubicin concentration above which toxicity on mature osteoclasts shows", "setting": "mature osteoclasts; 0.1-4 μM tested", "result": "higher than 0.2 micromolar"}, {"measurement": "Doxorubicin concentration at which toxicity on tumour cells manifests", "setting": "[1]; MTT at different times, osteosarcoma cell lines", "result": "> 1", "unit": "µmol/L"}, {"measurement": "death of the neoplastic cells", "setting": "[1]; free Doxorubicin 235 ng, 1 micromole/litre in the medium", "result": "about 80%"}, {"measurement": "Doxorubicin amount giving death of about 80% of the neoplastic cells", "setting": "[1]; [2]", "result": 235, "unit": "ng"}, {"measurement": "Doxorubicin concentration in the medium giving death of about 80% of the neoplastic cells", "setting": "[1]; [2]", "result": 1, "unit": "µM"}]}
{"molecule": "O=P(O)(O)C(O)(Cn1ccnc1)P(=O)(O)O", "note": "[zolendronate]", "values": [{"measurement": "zolendronate concentration above which toxicity on mature osteoclasts is shown", "setting": "mature osteoclasts; 10^−8 to 10^−4 M tested", "result": "higher than 10^−7 M"}]}
{"molecule": "parathyroid hormone: human recombinant parathyroid hormone used at 10^−8 M to stimulate osteoblasts (protein, UniProt P01270 32-115, looked up, Parathyroid hormone, human recombinant parathyroid hormone used at 10^−8 M to stimulate osteoblasts) Parathyroid hormone: SVSEIQLMHNLGKHLNSMERVEWLRKKLQDVHNFVALGAPLAPRDAGSQRPRKKEDNVLVESHEKSLGEADKADVNVLTKAKSQ", "values": [{"measurement": "RANKL-positive O-EV subpopulation", "setting": "primary osteoblasts", "result": "63.6±4.20", "unit": "%"}]}
